Laboratory results: PubChem BioAssay AID1259407 (Chemical Carcinogenesis Research Information System (CCRIS), 2018)
Activity calls are given as the source filed them. No rule for the calls is given here.

System: CCRIS mutagenicity, Ames/micronucleus/aberration tests
Assay: CCRIS mutagenicity studies
[1] = Test System: MOUSE LYMPHOMA, Strain/Indicator: L5178Y (TK+/TK-), Metabolic Activation: NONE, Method: SUSPENSION/PLATE
[2] = Test System: MOUSE LYMPHOMA, Strain/Indicator: L5178Y (TK+/TK-), Metabolic Activation: RAT, LIVER, S-9, AROCLOR 1254, Method: SUSPENSION/PLATE
[3] = Test System: AMES SALMONELLA TYPHIMURIUM, Strain/Indicator: TA98, Metabolic Activation: NONE, Method: PREINCUBATION
[4] = Test System: AMES SALMONELLA TYPHIMURIUM, Strain/Indicator: TA100, Metabolic Activation: NONE, Method: PREINCUBATION

Structure (SMILES): Cc1ccc(N)c(O)c1
- mutagenic call (Test System: AMES SALMONELLA TYPHIMURIUM, Strain/Indicator: TA98, Metabolic Activation: HAMSTER LIVER S-9, AROCLOR 1254, Method: STANDARD PLATE): inactive; negative
- mutagenic call (Test System: AMES SALMONELLA TYPHIMURIUM, Strain/Indicator: TA98, Metabolic Activation: NONE, Method: STANDARD PLATE): inactive; negative
- mutagenic call (Test System: AMES SALMONELLA TYPHIMURIUM, Strain/Indicator: TA98, Metabolic Activation: RAT LIVER S-9, AROCLOR 1254, Method: STANDARD PLATE): inactive; negative
- mutagenic call (Test System: AMES SALMONELLA TYPHIMURIUM, Strain/Indicator: TA100, Metabolic Activation: HAMSTER LIVER S-9, AROCLOR 1254, Method: STANDARD PLATE): inactive; negative
- mutagenic call (Test System: AMES SALMONELLA TYPHIMURIUM, Strain/Indicator: TA100, Metabolic Activation: NONE, Method: STANDARD PLATE): active; positive
- mutagenic call (Test System: AMES SALMONELLA TYPHIMURIUM, Strain/Indicator: TA100, Metabolic Activation: RAT LIVER S-9, AROCLOR 1254, Method: STANDARD PLATE): inactive; negative
- mutagenic call [1]: active; positive. reevaluation of results: positive
- mutagenic call [2]: active; positive. reevaluation of results: equivocal

Structure (SMILES): NC(N)=NC(=O)c1nc(Cl)c(N)nc1N
- mutagenic call (Test System: AMES SALMONELLA TYPHIMURIUM, Strain/Indicator: TA97, Metabolic Activation: HAMSTER, LIVER, S-9, AROCLOR 1254 (5, 10 OR 30%), Method: PREINCUBATION): inactive; negative
- mutagenic call (Test System: AMES SALMONELLA TYPHIMURIUM, Strain/Indicator: TA97, Metabolic Activation: NONE, Method: PREINCUBATION): inactive; negative
- mutagenic call (Test System: AMES SALMONELLA TYPHIMURIUM, Strain/Indicator: TA97, Metabolic Activation: RAT, LIVER, S-9, AROCLOR 1254 (5, 10 OR 30%), Method: PREINCUBATION): inactive; negative
- mutagenic call (Test System: AMES SALMONELLA TYPHIMURIUM, Strain/Indicator: TA98, Metabolic Activation: HAMSTER, LIVER, S-9, AROCLOR 1254 (30%), Method: PREINCUBATION): inactive; negative
- mutagenic call [3]: inactive; negative
- mutagenic call (Test System: AMES SALMONELLA TYPHIMURIUM, Strain/Indicator: TA98, Metabolic Activation: RAT, LIVER, S-9, AROCLOR 1254 (30%), Method: PREINCUBATION): inactive; negative
- mutagenic call (Test System: AMES SALMONELLA TYPHIMURIUM, Strain/Indicator: TA100, Metabolic Activation: HAMSTER, LIVER, S-9, AROCLOR 1254 (30%), Method: PREINCUBATION): inactive; negative
- mutagenic call [4]: inactive; negative
- mutagenic call (Test System: AMES SALMONELLA TYPHIMURIUM, Strain/Indicator: TA100, Metabolic Activation: RAT, LIVER, S-9, AROCLOR 1254 (30%), Method: PREINCUBATION): inactive; negative
- mutagenic call (Test System: AMES SALMONELLA TYPHIMURIUM, Strain/Indicator: TA1535, Metabolic Activation: HAMSTER, LIVER, S-9, AROCLOR 1254 (30%), Method: PREINCUBATION): inactive; negative
- mutagenic call (Test System: AMES SALMONELLA TYPHIMURIUM, Strain/Indicator: TA1535, Metabolic Activation: NONE, Method: PREINCUBATION): inactive; negative
- mutagenic call (Test System: AMES SALMONELLA TYPHIMURIUM, Strain/Indicator: TA1535, Metabolic Activation: RAT, LIVER, S-9, AROCLOR 1254 (30%), Method: PREINCUBATION): inactive; negative
- mutagenic call (Test System: AMES SALMONELLA TYPHIMURIUM, Strain/Indicator: TA1537, Metabolic Activation: HAMSTER, LIVER, S-9, AROCLOR 1254 (30%), Method: PREINCUBATION): active; positive
- mutagenic call (Test System: AMES SALMONELLA TYPHIMURIUM, Strain/Indicator: TA1537, Metabolic Activation: NONE, Method: PREINCUBATION): active; positive
- mutagenic call (Test System: AMES SALMONELLA TYPHIMURIUM, Strain/Indicator: TA1537, Metabolic Activation: RAT, LIVER, S-9, AROCLOR 1254 (30%), Method: PREINCUBATION): active; positive

Structure (SMILES): CC(=O)O[C@H]1[C@H](OC23C=C(C)C4(CC4)C(C)(O)C2C(=O)C(C)(C)C3)O[C@H](CO)[C@@H](OC(=O)/C=C/c2ccc(O)cc2)[C@@H]1O (stereo partly drawn)
- mutagenic call [3]: active; positive
- mutagenic call [4]: active; positive

Structure (SMILES): O=C(O)/C=C\Cl
- mutagenic call (Test System: AMES SALMONELLA TYPHIMURIUM, Strain/Indicator: TA97, Metabolic Activation: RAT, LIVER, S-9, PCB, Method: STANDARD PLATE): active; positive
- mutagenic call (Test System: AMES SALMONELLA TYPHIMURIUM, Strain/Indicator: TA102, Metabolic Activation: RAT, LIVER, S-9, PCB, Method: STANDARD PLATE): active; positive

Structure (SMILES): CC(=O)N(O)c1ccc2c(ccc3ccccc32)c1
- mutagenic call (Test System: UDS HUMAN FIBROBLASTS, Strain/Indicator: THY INCORP (NON-S-PHASE), Metabolic Activation: NONE, Method: AUTORADIOGRAPHY): active; positive

Structure (SMILES): CCCCN[N+](=O)[O-]
- mutagenic call (Test System: E. COLI, Strain/Indicator: WP2 (HCR-), Metabolic Activation: NONE): active; positive

Structure (SMILES): CN(C)C(=S)SSC(=S)N(C)C
- mutagenic call (End Point: IN VIVO MICRONUCLEUS, Test System: BONE MARROW POLYCHROMATIC ERYTHROCYTES, Species: MOUSE, Strain/Sex: SWISS/MALE, FEMALE, Route: IP 2X IN AQUEOUS SUSPENSION WITHIN 24 HR): inactive; negative
- mutagenic call (Test System: AMES SALMONELLA TYPHIMURIUM, Strain/Indicator: TA98, Metabolic Activation: RAT, LIVER, S-9, AROCLOR 1254, Method: STANDARD PLATE): active; positive
- mutagenic call (Test System: AMES SALMONELLA TYPHIMURIUM, Strain/Indicator: TA98, Metabolic Activation: S-9, Method: STANDARD PLATE): inactive; negative
- mutagenic call (Test System: AMES SALMONELLA TYPHIMURIUM, Strain/Indicator: TA100, Metabolic Activation: RAT, LIVER, S-9, AROCLOR 1254, Method: STANDARD PLATE): active; positive
- mutagenic call (Test System: AMES SALMONELLA TYPHIMURIUM, Strain/Indicator: TA100, Metabolic Activation: S-9, Method: STANDARD PLATE): active; positive
- mutagenic call (Test System: AMES SALMONELLA TYPHIMURIUM, Strain/Indicator: TA102, Metabolic Activation: NONE, Method: STANDARD PLATE): inactive; negative
- mutagenic call (Test System: AMES SALMONELLA TYPHIMURIUM, Strain/Indicator: TA102, Metabolic Activation: RAT, LIVER, S-9, AROCLOR 1254, Method: STANDARD PLATE): inactive; negative
- mutagenic call (Test System: AMES SALMONELLA TYPHIMURIUM, Strain/Indicator: TA104, Metabolic Activation: NONE, Method: STANDARD PLATE): inactive; negative
- mutagenic call (Test System: AMES SALMONELLA TYPHIMURIUM, Strain/Indicator: TA104, Metabolic Activation: RAT, LIVER, S-9, AROCLOR 1254, Method: STANDARD PLATE): inactive; negative
- mutagenic call (Test System: AMES SALMONELLA TYPHIMURIUM, Strain/Indicator: TA1535, Metabolic Activation: NONE, Method: STANDARD PLATE): active; positive
- mutagenic call (Test System: AMES SALMONELLA TYPHIMURIUM, Strain/Indicator: TA1535, Metabolic Activation: RAT, LIVER, S-9, AROCLOR 1254, Method: STANDARD PLATE): active; positive
- mutagenic call (Test System: AMES SALMONELLA TYPHIMURIUM, Strain/Indicator: TA1538, Metabolic Activation: NONE, Method: STANDARD PLATE): active; positive
- mutagenic call (Test System: AMES SALMONELLA TYPHIMURIUM, Strain/Indicator: TA1538, Metabolic Activation: RAT, LIVER, S-9, AROCLOR 1254, Method: STANDARD PLATE): active; positive
- mutagenic call (Test System: CHINESE HAMSTER V-79, Strain/Indicator: V-79 (HGPRT)/6-THIOGUANINE, Metabolic Activation: NONE, Method: RESPREADING): active; positive

Structure (SMILES): C/C([O-])=C(/N=Nc1cc(S(N)(=O)=O)ccc1[O-])C(=O)Nc1ccccc1.C/C([O-])=C(\N=Nc1cc(S(N)(=O)=O)ccc1[O-])C(=O)Nc1ccccc1.[Co+2]
- mutagenic call [1]: inactive; negative. reevaluation of results: negative
- mutagenic call [2]: inactive; negative. reevaluation of results: negative

Structure (SMILES): O=C(O)Cc1ccccc1Cl
- mutagenic call [3]: inactive; negative
- mutagenic call (Test System: AMES SALMONELLA TYPHIMURIUM, Strain/Indicator: TA98, Metabolic Activation: RAT LIVER S-9, PCB, Method: PREINCUBATION): inactive; negative
- mutagenic call [4]: inactive; negative
- mutagenic call (Test System: AMES SALMONELLA TYPHIMURIUM, Strain/Indicator: TA100, Metabolic Activation: RAT LIVER S-9, PCB, Method: PREINCUBATION): inactive; negative
- mutagenic call (Test System: AMES SALMONELLA TYPHIMURIUM, Strain/Indicator: TA104, Metabolic Activation: NONE, Method: PREINCUBATION): inactive; negative
- mutagenic call (Test System: AMES SALMONELLA TYPHIMURIUM, Strain/Indicator: TA104, Metabolic Activation: RAT LIVER S-9, PCB, Method: PREINCUBATION): inactive; negative
- mutagenic call (Test System: E.COLI, Strain/Indicator: WP2 UVRA, Metabolic Activation: NONE, Method: PREINCUBATION): inactive; negative
- mutagenic call (Test System: E.COLI, Strain/Indicator: WP2 UVRA, Metabolic Activation: RAT LIVER S-9, PCB, Method: PREINCUBATION): inactive; negative
